Results reported in patent publication US11590129B2, “Combination therapy with an antitumor alkaloid” (PHARMA MAR, S.A., priority 2010, dated 2023).

System: A2780 tumors
Assay: Human ovarian tumor xenografts (A2780) in athymic nude mice, tumor volume % T/C
Assay type: in vivo
Experimental: Female athymic nude mice (Harlan Laboratories Models, S.L. (Barcelona, Spain) were utilized for all experiments. Animals were housed in individually ventilated cages, up to ten per cage in a 12-hour light-dark cycle at 21-23° C. and 40-60% humidity. The mice were allowed free access to irradiated standard rodent diet and sterilized water. Animals were acclimated for at least 5 days prior to tumor implantation with a tumor cell suspension.
The formula to calculate volume for a prolate ellipsoid was used to estimate tumor volume (mm^3) from 2-dimensional tumor measurements: Tumor volume (mm^3)=[L×W^2]÷2, where L is the length and it is the longest diameter in mm, and W is the width and it is the shortest diameter in mm of a tumor. Assuming unit density, volume was converted to weight (i.e., 1 mm^3=1 mg). Tumor volume and animal body weights were measured 2-3 times per week starting form the first day of treatment (Day 0).
PM01183 was provided in the form of vials of lyophilized PM01183 cake which was reconstituted with water for infusion to a concentration of 0.2 mg/mL. The PM01183 stock solution was further diluted in 5% glucose solution for injection to the dosing formulation concentrations. […] Vinorelbine was provided as a solution prepared by diluting the product with 0.9% saline solution.
Dose level groups were administered either as single agents or in combination.
Comparison of the median tumor volume in the treatment groups (T) to the median tumor volume in the control group (T/C×100%) was used for evaluation of the antitumor efficacy.
Day 9 for PM01183 and vinorelbine study) using the median-effect principle (Chou T. C. Pharmacol. Rev.

[1] = PM01183 0.045 mg/kg iv days 0,7, doxorubicin study
[2] = PM01183 0.045 mg/kg iv days 0,7, paclitaxel study
[3] = PM01183 0.045 mg/kg iv days 0,7, vinorelbine study
[4] = PM01183 0.09 mg/kg iv days 0,7, doxorubicin study
[5] = PM01183 0.09 mg/kg iv days 0,7, paclitaxel study
[6] = PM01183 0.09 mg/kg iv days 0,7, vinorelbine study
[7] = PM01183 0.135 mg/kg iv days 0,7, doxorubicin study
[8] = PM01183 0.135 mg/kg iv days 0,7, paclitaxel study
[9] = PM01183 0.135 mg/kg iv days 0,7, vinorelbine study
[10] = PM01183 0.18 mg/kg iv days 0,7, doxorubicin study
[11] = PM01183 0.18 mg/kg iv days 0,7, paclitaxel study
[12] = PM01183 0.18 mg/kg iv days 0,7, vinorelbine study

COc1ccc2[nH]c3c(c2c1)CCN[C@]31CS[C@@H]2c3c(OC(C)=O)c(C)c4c(c3[C@H](COC1=O)N1[C@@H]2[C@H]2c3c(cc(C)c(OC)c3O)C[C@@H]([C@@H]1O)N2C)OCO4 [PM01183]
% T/C on day 0 [1]: 100.1%
% T/C on day 3 [1]: 98.2%
% T/C on day 5 [1]: 98.6%
% T/C on day 7 [1]: 97.7%
% T/C on day 10 [1]: 90.0%
% T/C on day 0 [2]: 94.0%
% T/C on day 3 [2]: 91.1%
% T/C on day 5 [2]: 99.6%
% T/C on day 7 [2]: 88.0%
% T/C on day 10 [2]: 73.1%
% T/C on day 0 [3]: 97.8%
% T/C on day 2 [3]: 107.5%
% T/C on day 5 [3]: 93.6%
% T/C on day 7 [3]: 92.5%
% T/C on day 9 [3]: 97.1%
% T/C on day 0 [4]: 100.2%
% T/C on day 3 [4]: 93.3%
% T/C on day 5 [4]: 95.2%
% T/C on day 7 [4]: 93.5%
% T/C on day 10 [4]: 87.7%
% T/C on day 0 [5]: 94.2%
% T/C on day 3 [5]: 88.5%
% T/C on day 5 [5]: 114.1%
% T/C on day 7 [5]: 103.3%
% T/C on day 10 [5]: 88.0%
% T/C on day 0 [6]: 98.0%
% T/C on day 2 [6]: 88.6%
% T/C on day 5 [6]: 61.2%
% T/C on day 7 [6]: 87.6%
% T/C on day 9 [6]: 94.5%
% T/C on day 0 [7]: 102.2%
% T/C on day 3 [7]: 82.4%
% T/C on day 5 [7]: 86.6%
% T/C on day 7 [7]: 89.2%
% T/C on day 10 [7]: 82.4%
% T/C on day 0 [8]: 101.2%
% T/C on day 3 [8]: 89.9%
% T/C on day 5 [8]: 99.8%
% T/C on day 7 [8]: 84.5%
% T/C on day 10 [8]: 61.2%
% T/C on day 0 [9]: 98.3%
% T/C on day 2 [9]: 105.3%
% T/C on day 5 [9]: 77.2%
% T/C on day 7 [9]: 79.1%
% T/C on day 9 [9]: 78.7%
% T/C on day 0 [10]: 100.9%
% T/C on day 3 [10]: 70.2%
% T/C on day 5 [10]: 68.5%
% T/C on day 7 [10]: 69.3%
% T/C on day 10 [10]: 62.1%
% T/C on day 0 [11]: 101.6%
% T/C on day 3 [11]: 68.9%
% T/C on day 5 [11]: 83.1%
% T/C on day 7 [11]: 69.1%
% T/C on day 10 [11]: 52.8%
% T/C on day 0 [12]: 98.9%
% T/C on day 2 [12]: 101.6%
% T/C on day 5 [12]: 72.2%
% T/C on day 7 [12]: 61.3%
% T/C on day 9 [12]: 62.8%
